Data set [1] concerns phospholipase C-γ2 (PLC-γ2). Also noted: method as in PMID 19303309. The following applies: at 15 µM; cited from earlier work.
Data set [2] concerns phospholipase C-γ2 (PLC-γ2). The arrangement: method as in PMID 19303309. The following applies: at 15 µM; cited from earlier work. The source holds these as a separate data set.
Data set [3] relates to panel of approximately sixty human tumor cell lines. The data set can be described thus: NCI-60 human tumor cell lines screen (SRB), full panel. The note with it: 10 μM; for activity at 10 µM: Homo sapiens, 60 cell lines assay in one dose, 48 h; for Positive Cytostatic Effect / Positive Cytotoxic Effect: one dose; for Positive Cytostatic Effect: ratio of number of cell lines with percent growth from 0 to 50 to total number of cell lines; for Positive Cytotoxic Effect: ratio of number of cell lines with percent growth of <0 to total number of cell lines. Format: cell-based. As for the experimental part: Compounds 2a, 2c–f, 2h–l, 3, 5e, 5f were selected for antitumor activity which was performed according to the standard protocols of National Cancer Institute (NCI, Bethesda, MD, USA) Developmental Therapeutic Program (DTP). At the prescreening stage, the compounds were evaluated for antitumor activity at the concentration of 10 µM against a panel of approximately sixty cancer cell lines representing different types of cancer including leukemia, melanoma, lung, colon, CNS, ovarian, renal, prostate and breast cancers.
Among them, three compounds (2d, 2h, 2i) presented excellent cytotoxic and four derivatives (2d, 2h, 2i, 2k) cytostatic properties in one or more cell lines when applied at a concentration of 10 µM. […] The outcomes were calculated and presented in the form of three response parameters (GI50, TGI and LC50) for each cell line via growth percentage inhibition curves. […]
The primary anticancer assay was performed on a panel of approximately sixty human tumor cell lines derived from nine neoplastic diseases (leukemia, melanoma, lung, colon, CNS, ovarian, renal, prostate, and breast cancers), in accordance with the protocol of the National Cancer Institute Drug Evaluation Branch (Bethesda, MD, USA). Tested compounds were added to the culture at a single concentration (10^−5 M) and the cultures were incubated for 48 h. End-point determinations were made with a protein-binding dye, sulforhodamine B (SRB). Results for each tested compound were reported as the percentage of the growth of the treated cells when compared to the untreated control cells. The percentage of the growth was evaluated spectrophotometrically versus controls not treated with test agents. […] Using absorbance measurements [time zero (Tz), control growth in the absence of drug (C), and test growth in the presence of the drug (Ti)], the percentage growth was calculated for each drug concentration. Percentage growth inhibition was calculated as:[(Ti − Tz)/[…]] × 100(1) for concentrations for which Ti ≥ Tz, [(Ti − Tz)/Tz] × 100 for concentrations for which Ti < Tz. Dose-response parameters (GI50, TGI) were calculated for each compound. Growth inhibition of 50% (GI50) was calculated from [(Ti − Tz)/(C − Tz)] × 100 = 50, which is the drug concentration resulting in a 50% lower net protein increase in the treated cells (measured by SRB staining) as compared to the net protein increase seen in the control cells. The drug concentration resulting in total growth inhibition (TGI) was calculated from Ti = Tz. Values were calculated for each of these parameters if the level of activity was reached; however, if the effect was not reached or was excessive, the value for that parameter was expressed as more or less than the maximum or minimum concentration tested. The lowest values were obtained with the most sensitive cell lines. Compounds having GI50 values ≤ 100 μM were declared to be active. The selectivity index (SI) calculated by dividing the full panel MG_MID (full-panel mean-graph midpoint) (μM) of the compounds 2h and 2i by their individual subpanel MG_MID of a cell line (μM) was considered as a measure of compounds’ selectivity. Ratios between 3 and 6 mean moderate selectivity, ratios greater than 6 indicate high selectivity toward the corresponding cell line, while compounds not meeting either of these criteria are rated nonselective.

We go through 18 molecules from PMC7926352, “Synthesis, Characterization and In Vitro Evaluation of Novel 5-Ene-thiazolo[3,2-b][1,2,4]triazole-6(5H)-ones as Possible Anticancer Agents” (Molecules, 2021).

One may read the melting point as the temperature, or range, at which the solid turns liquid.

Read-outs that look alike come from different tables or passages of the source. Bounds are passed on as bounds.

As to `O=c1/c(=C/c2ccccc2[N+](=O)[O-])sc2nc(-c3ccc(F)cc3)nn12` [CCT-196700], the “PLC-γ2 inhibition, biochemical assay” value in data set [1] is recorded as “satisfactory activity parameters”. Moreover, the “PLC-γ2 inhibition, calcium release cell-based assay” value in data set [2] is “satisfactory activity parameters”.
For `O=c1/c(=C/N2CCN(CCO)CC2)sc2ncnn12` [Compound 6c, (Z)-5-((4-(2-Hydroxyethyl)piperazin-1-yl)methylene)thiazolo[3,2-b][1,2,4]triazol-6(5H)-one], the melting point fell in the range of 189 to 192 °C.
With `O=c1/c(=C/N2CCc3ccccc32)sc2ncnn12` [Compound 6a, (Z)-5-(Indolin-1-ylmethylene)thiazolo[3,2-b][1,2,4]triazol-6(5H)-one], the melting point was more than 250 °C.
Turning to `O=c1c(=Cc2cccs2)sc2ncnn12` [Compound 2k, (Z)-5-(Thiophen-2-y-lmethylene)thiazolo[3,2-b][1,2,4]triazol-6(5H)-one], the activity at 10 µM in data set [3] (read-out: Mean Growth, %) is 111%; in data set [3] (read-out: Range of Growth, %), 25.2 to 180%. The “Positive Cytostatic Effect” value in data set [3] is 1/56. Also, the “Positive Cytotoxic Effect” value in data set [3] is 0/56.
Consider `O=c1/c(=C/c2ccco2)sc2ncnn12` [Compound 2j, (Z)-5-(Furan-2-ylmethylene)thiazolo[3,2-b][1,2,4]triazol-6(5H)-one], for which the activity at 10 µM in data set [3] (read-out: Mean Growth, %) was 106%; in data set [3] (read-out: Range of Growth, %), 82.4 to 136%. Moreover, the “Positive Cytostatic Effect” value in data set [3] is 0/56. In addition, the “Positive Cytotoxic Effect” value in data set [3] is reported as 0/56.
`C=CCOc1ccccc1/C=c1\sc2ncnn2c1=O` [Compound 2c, (Z)-5-(2-(Allyloxy)benzylidene)thiazolo[3,2-b][1,2,4]triazol-6(5H)-one]: the activity at 10 µM in data set [3] (read-out: Mean Growth, %) came to 103%. Besides, in data set [3] (read-out: Range of Growth, %), the activity at 10 µM is 77.1 to 146%. Further, in data set [3], the “Positive Cytostatic Effect” value is on record as 0/59 and the “Positive Cytotoxic Effect” value was 0/59.
`O=c1/c(=C/N2CCCCC2)sc2ncnn12` [Compound 6b, (Z)-5-(Piperidin-1-ylmethylene)thiazolo[3,2-b][1,2,4]triazol-6(5H)-one]: the melting point was in the range of 190 to 192 °C.
For the molecule `CCN(CC)c1ccc(/C=c2\sc3ncnn3c2=O)cc1` [Compound 2e, (Z)-5-(4-(Diethylamino)benzylidene)thiazolo[3,2-b][1,2,4]triazol-6(5H)-one], the activity at 10 µM in data set [3] (read-out: Mean Growth, %) turned out to be 102%. Besides, the activity at 10 µM in data set [3] (read-out: Range of Growth, %) was 61.9 to 134%. Further, in data set [3], the “Positive Cytostatic Effect” value was 0/58 and the “Positive Cytotoxic Effect” value was 0/58.
Regarding `COc1ccccc1/C=c1\sc2ncnn2c1=O` [Compound 2b, (Z)-5-(2-Methoxybenzylidene)thiazolo[3,2-b][1,2,4]triazol-6(5H)-one], the melting point fell in the range of 196 to 198 °C.
With `O=c1/c(=C/c2ccccc2F)sc2ncnn12` [Compound 2a, (Z)-5-(2-Fluorobenzylidene)thiazolo[3,2-b][1,2,4]triazol-6(5H)-one], the activity at 10 µM in data set [3] (read-out: Mean Growth, %) turned out to be 90%. Besides, in data set [3] (read-out: Range of Growth, %), the activity at 10 µM lay in the range of 52.8 to 123%. In addition, in data set [3], the “Positive Cytostatic Effect” value is given as 0/59 and the “Positive Cytotoxic Effect” value is on record as 0/59.
For the molecule `O=c1/c(=C/Nc2ccc(Cl)cc2)sc2ncnn12` [Compound 5f, (E/Z)-5-(((4-Chlorophenyl)amino)methylene)thiazolo[3,2-b][1,2,4]triazol-6(5H)-one], the activity at 10 µM in data set [3] (read-out: Mean Growth, %) stood at 93.6%. The activity at 10 µM in data set [3] (read-out: Range of Growth, %) lay in the range of 54.4 to 112%. Moreover, in data set [3], the “Positive Cytostatic Effect” value was 0/59 and the “Positive Cytotoxic Effect” value is on record as 0/59.
In the case of `COc1ccc(/C=c2\sc3ncnn3c2=O)cc1OC` [Compound 2f, (Z)-5-(3,4-Dimethoxybenzylidene)thiazolo[3,2-b][1,2,4]triazol-6(5H)-one], in data set [3] (read-out: Mean Growth, %), the activity at 10 µM amounted to 108%. The activity at 10 µM in data set [3] (read-out: Range of Growth, %) fell in the range of 86.7 to 262%. Besides, in data set [3], the “Positive Cytostatic Effect” value is recorded as 0/57 and the “Positive Cytotoxic Effect” value is listed as 0/57.
Regarding `Cc1cccc(NC(=O)COc2ccc(Cl)cc2/C=c2\sc3ncnn3c2=O)c1` [Compound 2g, (Z)-2-(4-Chloro-2-((6-oxothiazolo[3,2-b][1,2,4]triazol-5(6H)-ylidene)methyl)phenoxy)-N-(m-tolyl)acetamide], the melting point was 260 to 262 °C.
`CCOC(=O)N1CCN(/C=c2\sc3ncnn3c2=O)CC1` [Compound 6d, Ethyl(Z)-4-((6-oxothiazolo[3,2-b][1,2,4]triazol-5(6H)-ylidene)methyl)piperazine-1-carboxylate]: the melting point is 204 to 206 °C.
As to `O=c1/c(=C/Nc2cccc(O)c2)sc2ncnn12` [Compound 5e, (E/Z)-5-(((3-Hydroxyphenyl)amino)methylene)thiazolo[3,2-b][1,2,4]triazol-6(5H)-one], the activity at 10 µM is 101% in data set [3] (read-out: Mean Growth, %) and 80.3 to 138% in data set [3] (read-out: Range of Growth, %). In addition, the “Positive Cytostatic Effect” value in data set [3] is given as 0/59. Moreover, the “Positive Cytotoxic Effect” value in data set [3] is 0/59.
For the molecule `O=C(O)CSc1nnc[nH]1` [Compound 3, 2-((1H-1,2,4-Triazol-3-yl)thio)acetic Acid], the activity at 10 µM in data set [3] (read-out: Mean Growth, %) is 97.2%. In addition, the activity at 10 µM in data set [3] (read-out: Range of Growth, %) is 74.8 to 122%. Moreover, in data set [3], the “Positive Cytostatic Effect” value is on record as 0/59 and the “Positive Cytotoxic Effect” value is on record as 0/59.
For the molecule `CC(=O)Oc1ccc(/C=c2\sc3ncnn3c2=O)cc1` [Compound 2d, (Z)-4-((6-Oxothiazolo[3,2-b][1,2,4]triazol-5(6H)-ylidene)methyl)phenyl acetate], the activity at 10 µM was 99.7% in data set [3] (read-out: Mean Growth, %) and -73.9 to 148% in data set [3] (read-out: Range of Growth, %). For the same molecule, the “Positive Cytostatic Effect” value in data set [3] is 2/58. In addition, the “Positive Cytotoxic Effect” value in data set [3] is 3/58.
For `CC(=O)n1cc(/C=c2\sc3ncnn3c2=O)c2ccccc21` [Compound 2l, (Z)-5-((1-Acetyl-1H-indol-3-yl)methylene)thiazolo[3,2-b][1,2,4]triazol-6(5H)-one] the same measures were 105%, 66.9 to 141%, 0/59 and 0/59.
